Assay results: patent publication US5591711A, “L-lysyl-glycyl-L-histidine and therapeutic agent for wound healing containing the same” (Hoechst Japan Limited, priority 1994, dated 1997)
Peptide text beside a SMILES is read from it.

System: Balb/3T3 cells
Assay: Fibroblast proliferation promoting activity (3H-thymidine incorporation)
Type: cell-based
Settings: Balb/3T3 fibroblasts; for Incorporated 3H-thymidine: 15 h incubation then 6 h 3H-thymidine, mean ± SD, 4 cases per group
Method: Fibroblast cell strains, Balb/3T3 cells (purchased from ATCC) were inoculated into a 96-well culture plate at-5×10^3 cells/well, 100 μl of 10% calf serum-containing Dulbecco Modified Eagle Medium (hereinafter referred to as DME) was added and incubated at. 37 uC for 24 hours in an incubator. Then, the culture medium was removed and the cells were washed. One hundred μl of lowered serum medium (0.2% calf serum-containing DME) Was added to the wells and incubation was continued for another 3 days. L-lysyl-glycyl-L-histidine obtained in Example 1 was added thereto at 10 μl/well and incubation was performed for 15 hours. The culture medium contains a trace amount of Cu2+, and a part of L-lysyl-glycyl-L-histidine may form copper complexes. The 3H-thymidine was added to be 74 KBq/ml and incubation was performed for 6 hours. After completion of the incubation, the medium was removed, the cells were collected and the amount of 3H-thymidine incorporated in the cells was determined.

For `NCCCC[C@H](N)C(=O)NCC(=O)N[C@@H](Cc1c[nH]cn1)C(=O)O` [L-lysyl-glycyl-L-histidine] (H-Lys-Gly-His-OH), the “cell proliferation promoting activity” value (10^-6 to 10^-3 M, conclusion from Table 1) was “dose-dependent cell proliferation promoting activity”, the “Incorporated 3H-thymidine” value (Dose 10^-3 M) was 7719.5 ± 1246.8 cpm and the “Incorporated 3H-thymidine” value (Dose 10^-4 M) was 4889.8 ± 495.1 cpm. For the same compound, the “Incorporated 3H-thymidine” value (Dose 10^-5 M) was 1371.8 ± 249.1 cpm and the “Incorporated 3H-thymidine” value (Dose 10^-6 M) was 1406.5 ± 470.5 cpm.
